In publication PMC10882719 (Frontiers in Neuroscience, 2024):
Where two headings read alike, the source gives them in different places.

Columns and labels:
Type in all cases: cell-based
168 GPCRs [1] = target: T1, 168 GPCRs (Homo sapiens, UniProt P07550)
T1 construct: host or cells: PathHunter cell lines

168 GPCRs [2] = target: T2, 168 GPCRs (Homo sapiens, UniProt P18825); conditions: ADRA2C
T2 construct: host or cells: PathHunter cell lines
T2 sequence (P18825 1-462): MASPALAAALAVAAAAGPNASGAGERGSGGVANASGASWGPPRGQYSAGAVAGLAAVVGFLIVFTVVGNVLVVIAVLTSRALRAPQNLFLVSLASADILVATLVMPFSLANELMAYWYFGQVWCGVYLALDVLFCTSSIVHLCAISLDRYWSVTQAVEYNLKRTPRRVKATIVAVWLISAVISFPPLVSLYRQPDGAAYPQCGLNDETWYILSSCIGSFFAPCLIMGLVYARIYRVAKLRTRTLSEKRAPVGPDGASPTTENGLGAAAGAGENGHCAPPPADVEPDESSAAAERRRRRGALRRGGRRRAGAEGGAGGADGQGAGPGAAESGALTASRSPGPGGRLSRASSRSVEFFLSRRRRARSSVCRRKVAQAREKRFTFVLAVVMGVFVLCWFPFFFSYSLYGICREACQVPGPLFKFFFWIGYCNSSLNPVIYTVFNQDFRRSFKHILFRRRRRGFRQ

168 GPCRs [3] = target: T3, 168 GPCRs (Homo sapiens, UniProt P25105); conditions: PTAFR
T3 construct: host or cells: PathHunter cell lines
T3 sequence (P25105 whole entry): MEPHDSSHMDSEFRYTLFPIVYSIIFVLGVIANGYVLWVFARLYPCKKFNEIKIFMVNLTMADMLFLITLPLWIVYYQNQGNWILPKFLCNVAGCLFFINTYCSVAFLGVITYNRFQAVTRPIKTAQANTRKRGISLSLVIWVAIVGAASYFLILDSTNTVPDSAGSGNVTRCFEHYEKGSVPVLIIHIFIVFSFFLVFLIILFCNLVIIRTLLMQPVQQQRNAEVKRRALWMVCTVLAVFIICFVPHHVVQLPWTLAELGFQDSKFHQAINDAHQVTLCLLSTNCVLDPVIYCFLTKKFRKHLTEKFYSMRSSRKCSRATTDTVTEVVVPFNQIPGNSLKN

168 GPCRs [4] = target: T4, 168 GPCRs (Homo sapiens, UniProt P29371); conditions: TACR3
T4 construct: host or cells: PathHunter cell lines
T4 sequence (P29371 1-465): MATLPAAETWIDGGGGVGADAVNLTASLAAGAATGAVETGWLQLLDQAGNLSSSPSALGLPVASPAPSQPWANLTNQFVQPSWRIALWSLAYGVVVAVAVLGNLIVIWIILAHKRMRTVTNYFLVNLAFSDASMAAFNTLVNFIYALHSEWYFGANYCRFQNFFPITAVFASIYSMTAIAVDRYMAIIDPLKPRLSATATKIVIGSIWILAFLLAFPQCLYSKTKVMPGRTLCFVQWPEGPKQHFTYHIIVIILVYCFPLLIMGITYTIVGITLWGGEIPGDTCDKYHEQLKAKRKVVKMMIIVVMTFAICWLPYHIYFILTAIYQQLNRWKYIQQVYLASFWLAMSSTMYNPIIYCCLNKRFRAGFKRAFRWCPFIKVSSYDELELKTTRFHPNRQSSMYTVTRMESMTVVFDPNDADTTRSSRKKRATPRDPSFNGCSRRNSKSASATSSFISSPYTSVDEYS

168 GPCRs [5] = target: T5, 168 GPCRs (Homo sapiens, UniProt P32302)
T5 construct: host or cells: PathHunter cell lines
T5 sequence (P32302 1-372): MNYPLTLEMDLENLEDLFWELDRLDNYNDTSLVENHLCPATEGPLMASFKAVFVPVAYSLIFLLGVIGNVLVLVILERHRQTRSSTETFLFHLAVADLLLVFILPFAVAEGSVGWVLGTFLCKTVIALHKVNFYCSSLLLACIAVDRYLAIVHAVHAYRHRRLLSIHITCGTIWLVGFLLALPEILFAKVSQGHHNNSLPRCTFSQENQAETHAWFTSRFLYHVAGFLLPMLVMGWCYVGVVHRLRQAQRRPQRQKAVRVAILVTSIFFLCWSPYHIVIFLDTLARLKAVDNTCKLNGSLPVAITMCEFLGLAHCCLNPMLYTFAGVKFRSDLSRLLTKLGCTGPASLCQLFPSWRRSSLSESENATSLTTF

168 GPCRs [6] = target: T6, 168 GPCRs (Homo sapiens, UniProt P35367)
T6 construct: host or cells: PathHunter cell lines
T6 sequence (P35367 whole entry): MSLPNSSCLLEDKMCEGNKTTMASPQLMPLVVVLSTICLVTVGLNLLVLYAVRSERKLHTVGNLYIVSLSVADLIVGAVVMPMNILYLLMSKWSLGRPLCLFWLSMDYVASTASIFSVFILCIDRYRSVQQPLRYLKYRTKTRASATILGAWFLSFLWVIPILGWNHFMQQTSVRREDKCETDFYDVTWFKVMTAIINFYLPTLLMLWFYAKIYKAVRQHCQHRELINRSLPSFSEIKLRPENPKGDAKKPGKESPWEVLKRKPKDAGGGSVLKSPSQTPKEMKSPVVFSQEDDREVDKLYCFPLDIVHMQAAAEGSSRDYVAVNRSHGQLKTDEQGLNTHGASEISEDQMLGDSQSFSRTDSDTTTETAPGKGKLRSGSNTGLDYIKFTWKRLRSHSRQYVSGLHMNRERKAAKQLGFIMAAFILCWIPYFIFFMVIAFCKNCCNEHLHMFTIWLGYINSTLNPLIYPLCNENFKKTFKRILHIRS

168 GPCRs [7] = target: T7, 168 GPCRs (Homo sapiens, UniProt P51582); conditions: P2RY4
T7 construct: host or cells: PathHunter cell lines
T7 sequence (P51582 whole entry): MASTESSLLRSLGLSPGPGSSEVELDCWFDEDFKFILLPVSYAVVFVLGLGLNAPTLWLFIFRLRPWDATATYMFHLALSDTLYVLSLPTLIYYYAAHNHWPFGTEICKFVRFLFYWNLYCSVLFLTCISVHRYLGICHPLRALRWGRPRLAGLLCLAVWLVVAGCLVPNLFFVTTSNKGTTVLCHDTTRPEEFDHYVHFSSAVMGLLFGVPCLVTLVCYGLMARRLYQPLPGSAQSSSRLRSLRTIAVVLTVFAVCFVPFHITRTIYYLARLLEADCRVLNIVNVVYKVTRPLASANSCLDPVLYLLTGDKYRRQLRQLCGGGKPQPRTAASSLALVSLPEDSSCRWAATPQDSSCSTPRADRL

168 GPCRs [8] = target: T8, 168 GPCRs (Homo sapiens, UniProt Q9UBY5)
T8 construct: host or cells: PathHunter cell lines
T8 sequence (Q9UBY5 1-353): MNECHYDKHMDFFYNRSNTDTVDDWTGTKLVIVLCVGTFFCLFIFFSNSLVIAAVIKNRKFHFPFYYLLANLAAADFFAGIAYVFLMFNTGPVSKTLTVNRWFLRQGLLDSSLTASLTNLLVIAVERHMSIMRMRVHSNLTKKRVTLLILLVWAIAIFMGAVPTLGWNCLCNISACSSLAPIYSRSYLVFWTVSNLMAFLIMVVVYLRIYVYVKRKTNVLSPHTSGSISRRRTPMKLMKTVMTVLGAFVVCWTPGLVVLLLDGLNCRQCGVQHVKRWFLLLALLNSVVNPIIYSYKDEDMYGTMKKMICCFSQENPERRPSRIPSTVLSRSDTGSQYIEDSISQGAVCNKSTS

T1 sequence (P07550 whole entry): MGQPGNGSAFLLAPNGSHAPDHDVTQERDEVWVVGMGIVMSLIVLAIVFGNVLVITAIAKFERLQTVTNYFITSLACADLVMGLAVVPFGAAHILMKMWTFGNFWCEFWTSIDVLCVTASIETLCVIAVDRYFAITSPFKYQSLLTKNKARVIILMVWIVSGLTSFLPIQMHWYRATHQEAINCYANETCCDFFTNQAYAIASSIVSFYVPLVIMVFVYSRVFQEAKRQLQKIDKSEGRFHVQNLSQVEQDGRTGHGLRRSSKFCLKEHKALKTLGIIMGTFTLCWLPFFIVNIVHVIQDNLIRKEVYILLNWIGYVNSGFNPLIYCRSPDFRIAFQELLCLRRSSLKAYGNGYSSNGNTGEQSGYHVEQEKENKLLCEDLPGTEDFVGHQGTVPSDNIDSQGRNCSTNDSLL

Row | Compound | % Agonist Activity (168 GPCRs [1]; ADRB2, 1 uM) [%] | % Antagonist Activity (168 GPCRs [1]; ADRB2, 1 uM) [%] | % Agonist Activity (168 GPCRs [1]; ADRB2, 10 uM) [%] | % Antagonist Activity (168 GPCRs [1]; ADRB2, 10 uM) [%] | % Agonist Activity (168 GPCRs [2]; 1 uM) [%] | % Antagonist Activity (168 GPCRs [2]; 1 uM) [%] | % Agonist Activity (168 GPCRs [2]; 10 uM) [%] | % Antagonist Activity (168 GPCRs [2]; 10 uM) [%] | % Agonist Activity (168 GPCRs [3]; Conc 1 uM) [%] | % Antagonist Activity (168 GPCRs [3]; Conc 1 uM) [%] | % Agonist Activity (168 GPCRs [3]; Conc 10 uM) [%] | % Antagonist Activity (168 GPCRs [3]; Conc 10 uM) [%] | % Agonist Activity (168 GPCRs [4]; Conc 1 uM) [%] | % Antagonist Activity (168 GPCRs [4]; Conc 1 uM) [%] | % Agonist Activity (168 GPCRs [4]; Conc 10 uM) [%] | % Antagonist Activity (168 GPCRs [4]; Conc 10 uM) [%] | % Agonist Activity (168 GPCRs [5]; CXCR5, 1 uM) [%] | % Antagonist Activity (168 GPCRs [5]; CXCR5, 1 uM) [%] | % Agonist Activity (168 GPCRs [5]; CXCR5, 10 uM) [%] | % Antagonist Activity (168 GPCRs [5]; CXCR5, 10 uM) [%] | other results
1 | CNC(C)C(=O)c1ccc2c(c1)OCO2 (stereo not shown) [methylone] | 0 | 18.1 | -0.2 | 20.4 | -2.5 | -4.3 | 0.1 | 17.6 | -1.3 | 2 | -2.6 | -6.7 | 0.8 | -3.9 | 1.1 | -14.3 | 2.5 | -4.3 | 1.4 | -15.1 | % Agonist Activity (168 GPCRs [6]; HRH1, 1 uM): 3%; % Antagonist Activity (168 GPCRs [6]; HRH1, 1 uM): -18%; % Agonist Activity (168 GPCRs [6]; HRH1, 10 uM): 2.5%; % Antagonist Activity (168 GPCRs [6]; HRH1, 10 uM): -2.2%; % Agonist Activity (168 GPCRs [7]; Conc 1 uM): -3.3%; % Antagonist Activity (168 GPCRs [7]; Conc 1 uM): 15.1%; % Agonist Activity (168 GPCRs [7]; Conc 10 uM): -4.1%; % Antagonist Activity (168 GPCRs [7]; Conc 10 uM): 17.5%; % Agonist Activity (168 GPCRs [8]; EDG7, 1 uM): 3%; % Antagonist Activity (168 GPCRs [8]; EDG7, 1 uM): 19.5%; % Agonist Activity (168 GPCRs [8]; EDG7, 10 uM): 1.1%; % Antagonist Activity (168 GPCRs [8]; EDG7, 10 uM): 17.9%
2 | CNC(C)Cc1ccc2c(c1)OCO2 (stereo not shown) [MDMA, 3,4-Methylenedioxy methamphetamine, reference compound] | 2 | 31.9 | 1.5 | 45.7 | 3.9 | 16.4 | 6.9 | 38.1 | 0.6 | 11.4 | 0.4 | 12.1 | 0.1 | 14.6 | 1 | 19.1 | 2.7 | -4.4 | 1.4 | 3.2 | % Agonist Activity (168 GPCRs [6]; HRH1, 1 uM): 3.1%; % Antagonist Activity (168 GPCRs [6]; HRH1, 1 uM): 13.7%; % Agonist Activity (168 GPCRs [6]; HRH1, 10 uM): 3.8%; % Antagonist Activity (168 GPCRs [6]; HRH1, 10 uM): 38.4%; % Agonist Activity (168 GPCRs [7]; Conc 1 uM): -4.2%; % Antagonist Activity (168 GPCRs [7]; Conc 1 uM): 5.7%; % Agonist Activity (168 GPCRs [7]; Conc 10 uM): -7.2%; % Antagonist Activity (168 GPCRs [7]; Conc 10 uM): -0.6%; % Agonist Activity (168 GPCRs [8]; EDG7, 1 uM): -2.8%; % Antagonist Activity (168 GPCRs [8]; EDG7, 1 uM): -7%; % Agonist Activity (168 GPCRs [8]; EDG7, 10 uM): -2.4%; % Antagonist Activity (168 GPCRs [8]; EDG7, 10 uM): 0.8%
